Source: PMC11775380, “Discovery of Novel Nav1.7-Selective Inhibitors with the 1H-Indole-3-Propionamide Scaffold for Effective Pain Relief” (Research, 2025)

Tests used:
[1] = system: SNI neuropathic pain model in mice; assay: Spared nerve injury (SNI) neuropathic pain model; type: in vivo, C57 mice
Source text: Peripheral nerve injury models were developed to investigate the mechanisms of neuropathic pain. One such model, the spared nerve injury (SNI) neuropathic pain model in mice, involved ligating and transecting the […] and tibial nerves within the […] nerve, while leaving the sural nerve untouched. […] To evaluate the neuroanalgesic potential of WN2-R in this model, both i.g. and i.m. routes were used to evaluate the neuroanalgesic effect of WN2-R in this model (n = 5). […] In contrast, PF-05089771 reached its peak at 1 h (PWTs = 1.08 g) but then rapidly lost its efficacy, resembling the saline control group after 1 h. Throughout the experiment, the PWTs of the WN2-R group remained consistently higher than that of the PF-05089771 group (Fig. 6F and G). […] Subsequently, the efficacy of both drugs gradually declined, converging with the saline group after 3 h. Throughout the entire dosing period, the PWTs of the WN2-R group were slightly higher than that of the PF-05089771 group (Fig. 6M and N). […] To elucidate the time course of pain hypersensitivity induced by SNI, the behavioral responses (mechanical testing with von Frey fibers) were measured before surgery (baseline value) in C57 mice (5 female). Then, the mice underwent SNI surgery, which involved ligation and axotomy of the common peroneal and tibial nerves, while sparing the sural nerve. Sham-operated mice served as controls, with their nerves remaining intact. To confirm the presence of pain hypersensitivity in the SNI group, behavioral testing was carried out 14 days after SNI in each animal. Post drugs/saline administration, PWTs were measured at 0, 0.5, 1, 1.5, 2, 2.5, and 3 h for the i.g. route, and at 0, 0.5, 1, 2, 3, and 4 h for the i.m. route.

[2] = system: CFA inflammatory pain model of mice; assay: CFA-induced inflammatory (chronic) pain model; type: in vivo, ICR mice; conditions: for Paw withdrawal threshold (PWT) at 1.5 h: 1.5 h post drug, 24 h after CFA
Experimental: The chronic pain model of mice was often used to simulate persistent pain in humans. In this model, chronic persistent pain was induced by injecting complete Freund’s adjuvant (CFA) into the right hind foot of mice. […] The chronic analgesic potential of WN2-R was evaluated using both i.g. and i.m. methods (n = 4). When administered by i.g., the PWTs of the WN2-R group and the PF-05089771 group reached their peak at 1.5 and 1 h after administration, respectively, and subsequently declined to the same level as the saline group at 2.5 h (Fig. 6D). […] When administered i.m., both the WN2-R and PF-05089771 groups reached peak PWTs at 1.5 h, and declined to the saline group level at 3 h (Fig. 6K). […] The mechanical allodynia of ICR mice (2 male and 2 female) was assessed prior to model construction using von Frey fibers according to the up–down method. Mice with paw withdraw thresholds (PWTs) remarkably deviating from the mean value were excluded from further experiments. Subsequently, 15 μl of CFA was unilaterally injected into the intraplantar surface of the right hind paw of each mice. After 24 h, the PWTs of the mice were assessed. During the i.g. administration of drugs or saline, PWTs were measured 0, 0.5, 1, 1.5, 2, and 2.5 h post drugs/saline administration. Similarly, during i.m. administration, PWTs were measured at 0, 0.5, 1, 1.5, 2, 2.5, and 3 h post drugs/saline administration.

hNav1.8 = biological target: T1, hNav1.8 (Homo sapiens, UniProt Q9Y5Y9); assay: Subtype selectivity, patch clamp (ND7/23 cells); type: cell-based; conditions: 1 μM
T1 construct: expressed in transfected cells; host or cells: ND7/23
Experimental: VGSC inhibitors required credible subtype selectivity to void side effects caused by binding to nontarget subtypes. At a concentration of 1 μM, the inhibitory rates of WN2-R on hNav1.2, hNav1.3, hNav1.4, hNav1.5, mNav1.6, and hNav1.8 were determined (n = 3 to 6, Fig. 7A). […] To further evaluate the drug safety profile, high-dose acute toxicity experiments were conducted. Mice were administered a high dose of 30 mg/kg WN2-R through i.p. administration. The rotarod test, forced-swim test, and open field test were used to explore the effect of high-dose WN2-R on the motor ability of mice (n = 4). The rotarod test evaluated the drug's effect on motor coordination, the forced-swim test examined its impact on the overall motor system, and the open field test assessed the drug's influence on the motor and nervous systems. […]
Whole-cell patch-clamp recordings were conducted at 25 ± 2 °C, utilizing an EPC 10USB patch-clamp amplifier (HEKA Elektronik, Lambrecht, Germany). […] IC50 values were determined in HEK293T or ND7/23 cell lines by voltage clamping at −80 mV, followed by stepping to the V1/2 of inactivation for 8 s to facilitate compound binding.

human Nav1.7 (hNav1.7) = biological target: T2, human Nav1.7 (hNav1.7) (Homo sapiens, UniProt Q15858); assay: Whole-cell patch-clamp inhibition of Nav1.7 currents in transfected HEK293T cells; type: cell-based
T2 construct: expressed in transfected cells; host or cells: HEK293T
Experimental: Human embryonic kidney (HEK) 293T (ATCC CRL-3216) and ND7/23 cells (National Collection of Authenticated Cell Cultures SCSP-5026) were cultured under standard conditions (5% CO2, 37 °C) in Dulbecco’s modified Eagle’s medium (DMEM) containing 10% fetal bovine serum and 1% penicillin-streptomycin solution(all from Gibco, Thermo Fisher Scientific, Waltham, MA, USA). When the cells reached 70% to 90% confluence, human Nav1.2 (hNav1.2), human Nav1.3 (hNav1.3), human Nav1.4 (hNav1.4), human Nav1.5 (hNav1.5), and mouse Nav1.6 (mNav1.6) channel plasmids were cotransfected with enhanced green fluorescent protein (eGFP) into HEK293T cells. Additionally, plasmids expressing β1 and β2 subunits tagged with eGFP were cotransfected with the human Nav1.7 (hNav1.7) channel into HEK293T cells. Human Nav1.8 (hNav1.8) was transiently transfected into ND7/23 cells, along with eGFP, using Lipofectamine 2000 (Invitrogen), adhering strictly to the manufacturer’s protocol. For manual patch-clamp experiments, the cells were plated onto glass coverslips and used within 20 to 48 h of transfection.
Whole-cell patch-clamp recordings were conducted at 25 ± 2 °C, utilizing an EPC 10USB patch-clamp amplifier (HEKA Elektronik, Lambrecht, Germany). Pipettes, with access resistance between 2.0 and 3.0 MΩ, were pulled from borosilicate glass capillary tubes using a 2-step vertical microelectrode puller (PC-10, Narishige Group, Tokyo, Japan). Voltage-clamp recordings were obtained with PatchMaster software v2 × 73 (HEKA Elektronik) 5 min after establishing whole-cell configuration, sampled at 20 kHz, and filtered at 5 kHz. To minimize voltage errors, 80% series resistance compensation was applied. Pipettes were filled with 140 mM CsF, 10 mM NaCl, 1 mM EGTA, and 10 mM HEPES (pH=7.4, adjusted with CsOH). The external solution contained 140 mM NaCl, 2 mM CaCl2, 1 mM MgCl2, 5 mM KCl, 10 mM HEPES, and 10 mM glucose (pH=7.4, adjusted with NaOH). IC50 values were determined in HEK293T or ND7/23 cell lines by voltage clamping at −80 mV, followed by stepping to the V1/2 of inactivation for 8 s to facilitate compound binding.

T2 sequence (Q15858 whole entry): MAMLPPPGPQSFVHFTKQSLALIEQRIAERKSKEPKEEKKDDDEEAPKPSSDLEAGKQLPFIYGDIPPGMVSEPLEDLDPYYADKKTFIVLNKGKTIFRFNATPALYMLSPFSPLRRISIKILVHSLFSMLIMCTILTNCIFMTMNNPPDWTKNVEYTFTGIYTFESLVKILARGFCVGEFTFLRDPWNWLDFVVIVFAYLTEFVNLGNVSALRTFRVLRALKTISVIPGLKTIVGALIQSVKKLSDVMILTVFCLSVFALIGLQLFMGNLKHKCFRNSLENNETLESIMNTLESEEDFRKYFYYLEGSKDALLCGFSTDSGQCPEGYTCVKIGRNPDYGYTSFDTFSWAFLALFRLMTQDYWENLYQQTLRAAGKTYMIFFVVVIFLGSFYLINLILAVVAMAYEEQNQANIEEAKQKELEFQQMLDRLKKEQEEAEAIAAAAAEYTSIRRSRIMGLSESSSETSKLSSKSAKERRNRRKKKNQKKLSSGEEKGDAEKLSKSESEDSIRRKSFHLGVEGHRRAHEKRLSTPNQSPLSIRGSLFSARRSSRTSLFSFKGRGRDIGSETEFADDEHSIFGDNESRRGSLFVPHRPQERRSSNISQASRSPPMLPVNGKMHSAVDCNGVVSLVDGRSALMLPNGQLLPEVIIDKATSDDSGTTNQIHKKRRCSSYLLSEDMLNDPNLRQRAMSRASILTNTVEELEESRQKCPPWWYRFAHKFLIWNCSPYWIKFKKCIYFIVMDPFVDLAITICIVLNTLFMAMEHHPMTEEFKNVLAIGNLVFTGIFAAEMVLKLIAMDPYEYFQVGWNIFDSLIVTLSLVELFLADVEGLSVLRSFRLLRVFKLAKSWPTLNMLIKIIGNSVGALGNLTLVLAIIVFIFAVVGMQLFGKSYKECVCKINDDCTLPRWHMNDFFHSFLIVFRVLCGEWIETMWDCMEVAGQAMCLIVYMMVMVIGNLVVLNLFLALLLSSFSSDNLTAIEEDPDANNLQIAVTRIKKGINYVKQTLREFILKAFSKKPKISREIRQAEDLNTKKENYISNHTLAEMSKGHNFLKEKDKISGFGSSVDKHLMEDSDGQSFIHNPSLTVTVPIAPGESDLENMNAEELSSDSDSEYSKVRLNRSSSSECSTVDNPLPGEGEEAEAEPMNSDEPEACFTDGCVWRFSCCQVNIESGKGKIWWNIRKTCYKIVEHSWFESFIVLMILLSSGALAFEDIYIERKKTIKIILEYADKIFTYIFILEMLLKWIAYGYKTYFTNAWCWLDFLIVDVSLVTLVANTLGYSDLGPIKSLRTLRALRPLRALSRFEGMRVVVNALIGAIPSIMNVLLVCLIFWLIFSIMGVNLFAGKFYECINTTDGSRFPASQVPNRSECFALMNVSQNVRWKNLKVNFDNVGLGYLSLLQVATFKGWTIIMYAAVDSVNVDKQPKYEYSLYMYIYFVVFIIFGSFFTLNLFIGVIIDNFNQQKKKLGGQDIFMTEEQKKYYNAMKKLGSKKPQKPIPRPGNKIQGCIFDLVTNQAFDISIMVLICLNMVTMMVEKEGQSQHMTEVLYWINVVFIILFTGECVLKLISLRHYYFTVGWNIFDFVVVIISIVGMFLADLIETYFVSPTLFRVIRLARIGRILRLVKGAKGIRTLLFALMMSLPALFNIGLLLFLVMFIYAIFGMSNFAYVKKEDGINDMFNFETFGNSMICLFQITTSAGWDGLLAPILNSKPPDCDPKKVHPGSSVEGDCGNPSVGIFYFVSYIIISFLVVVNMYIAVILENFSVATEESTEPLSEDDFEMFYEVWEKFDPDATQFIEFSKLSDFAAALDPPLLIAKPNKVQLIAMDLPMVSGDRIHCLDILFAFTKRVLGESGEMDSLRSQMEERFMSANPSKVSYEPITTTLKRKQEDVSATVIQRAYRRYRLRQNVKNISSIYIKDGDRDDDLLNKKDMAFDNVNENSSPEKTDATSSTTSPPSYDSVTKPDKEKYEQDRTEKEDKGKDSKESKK
T2 sequence (Q07699 19-218 partner): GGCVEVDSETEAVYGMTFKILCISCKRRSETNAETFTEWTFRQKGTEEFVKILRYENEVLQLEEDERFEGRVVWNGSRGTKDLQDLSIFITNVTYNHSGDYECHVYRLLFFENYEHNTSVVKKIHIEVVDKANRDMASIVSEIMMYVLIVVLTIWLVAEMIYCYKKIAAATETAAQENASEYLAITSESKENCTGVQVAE
T2 sequence (O60939 30-215 partner): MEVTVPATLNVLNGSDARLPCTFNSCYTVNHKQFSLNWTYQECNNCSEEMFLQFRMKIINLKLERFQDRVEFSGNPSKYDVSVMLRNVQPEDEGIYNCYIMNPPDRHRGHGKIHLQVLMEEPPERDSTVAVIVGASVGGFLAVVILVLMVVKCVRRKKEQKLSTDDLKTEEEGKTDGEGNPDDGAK
T1 sequence (Q9Y5Y9 whole entry): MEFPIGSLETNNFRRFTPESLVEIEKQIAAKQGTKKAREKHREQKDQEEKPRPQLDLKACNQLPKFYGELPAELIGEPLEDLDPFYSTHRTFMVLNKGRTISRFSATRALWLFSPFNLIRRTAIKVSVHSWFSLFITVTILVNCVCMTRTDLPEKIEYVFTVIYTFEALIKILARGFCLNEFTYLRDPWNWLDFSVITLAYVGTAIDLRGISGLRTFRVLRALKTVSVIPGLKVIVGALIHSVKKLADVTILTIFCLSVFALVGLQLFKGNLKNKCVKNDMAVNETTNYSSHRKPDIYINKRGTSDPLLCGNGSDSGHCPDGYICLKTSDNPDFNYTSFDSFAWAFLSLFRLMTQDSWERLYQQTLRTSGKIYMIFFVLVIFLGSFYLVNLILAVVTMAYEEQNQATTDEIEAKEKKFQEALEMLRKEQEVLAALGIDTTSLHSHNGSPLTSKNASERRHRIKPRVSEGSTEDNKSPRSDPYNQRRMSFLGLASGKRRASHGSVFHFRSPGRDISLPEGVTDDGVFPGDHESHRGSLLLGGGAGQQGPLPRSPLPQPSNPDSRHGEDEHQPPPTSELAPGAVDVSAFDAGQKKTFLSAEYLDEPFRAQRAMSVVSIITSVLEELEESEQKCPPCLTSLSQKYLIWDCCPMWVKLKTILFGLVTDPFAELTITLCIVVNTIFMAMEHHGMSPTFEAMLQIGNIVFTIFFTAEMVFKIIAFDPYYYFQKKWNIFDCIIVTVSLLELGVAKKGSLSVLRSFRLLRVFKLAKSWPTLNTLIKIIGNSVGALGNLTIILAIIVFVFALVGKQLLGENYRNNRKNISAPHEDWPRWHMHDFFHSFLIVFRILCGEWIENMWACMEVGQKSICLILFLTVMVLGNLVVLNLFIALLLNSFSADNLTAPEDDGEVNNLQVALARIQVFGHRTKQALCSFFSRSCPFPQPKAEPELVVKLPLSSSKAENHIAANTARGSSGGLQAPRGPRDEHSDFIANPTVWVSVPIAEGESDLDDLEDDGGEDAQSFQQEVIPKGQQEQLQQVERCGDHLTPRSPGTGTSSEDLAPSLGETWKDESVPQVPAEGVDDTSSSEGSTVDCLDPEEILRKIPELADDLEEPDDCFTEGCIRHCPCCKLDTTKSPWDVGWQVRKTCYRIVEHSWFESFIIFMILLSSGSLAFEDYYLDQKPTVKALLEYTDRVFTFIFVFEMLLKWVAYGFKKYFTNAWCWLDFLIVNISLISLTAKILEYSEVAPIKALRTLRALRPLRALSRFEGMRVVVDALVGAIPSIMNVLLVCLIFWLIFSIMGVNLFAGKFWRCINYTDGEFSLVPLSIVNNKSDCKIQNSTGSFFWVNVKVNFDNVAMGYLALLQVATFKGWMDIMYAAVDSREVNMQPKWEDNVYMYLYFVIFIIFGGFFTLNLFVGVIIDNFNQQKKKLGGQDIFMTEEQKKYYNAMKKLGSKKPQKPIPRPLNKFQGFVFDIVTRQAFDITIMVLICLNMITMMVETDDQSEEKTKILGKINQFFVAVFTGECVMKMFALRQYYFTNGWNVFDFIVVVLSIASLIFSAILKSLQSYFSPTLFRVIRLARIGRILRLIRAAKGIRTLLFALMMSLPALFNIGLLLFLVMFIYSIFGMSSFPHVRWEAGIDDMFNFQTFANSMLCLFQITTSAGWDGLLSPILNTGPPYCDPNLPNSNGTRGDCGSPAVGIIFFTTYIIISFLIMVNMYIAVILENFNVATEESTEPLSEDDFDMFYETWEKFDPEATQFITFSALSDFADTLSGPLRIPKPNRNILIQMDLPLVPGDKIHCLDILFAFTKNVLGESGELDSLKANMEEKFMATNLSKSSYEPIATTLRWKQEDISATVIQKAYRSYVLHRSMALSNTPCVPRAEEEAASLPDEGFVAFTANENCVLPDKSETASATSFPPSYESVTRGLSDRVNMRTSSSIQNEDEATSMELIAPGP

SMILES: Cc1ccc(Cn2cc([C@H](CC(=O)NCCN(C)C)c3ccc(F)cc3)c3ccccc32)cc1 [WN2-R]
- Duration of significant efficacy ([1]; i.g.): at least 2 h
- Paw withdrawal threshold (PWTs) ([1]; i.g., 1 h post drug application, 14 days after SNI): 1.72 g
- Time after which efficacy converged with the saline group ([1]; i.m.): 3 h
- Time of peak efficacy ([1]; i.m.): 1 h
- Paw withdrawal threshold (PWTs) at peak efficacy ([1]; i.m., 1 h post drug application, 14 days after SNI): 1.39 g
- Time at which PWT declined to the saline group level ([2]; i.g.): 2.5 h
- Time of peak PWT after administration ([2]; i.g.): 1.5 h
- Paw withdrawal threshold (PWT) at 1.5 h ([2]; i.g.): 1.25 g
- Time at which PWT declined to the saline group level ([2]; i.m.): 3 h
- Time of peak PWT after administration ([2]; i.m.): 1.5 h
- Paw withdrawal threshold (PWT) at 1.5 h ([2]; i.m.): 1.17 g
- Inhibitory rate on hNav1.8 (hNav1.8): much lower than that on Nav1.7
- Activity of P1 relative to P2 (human Nav1.7 (hNav1.7); ratio of Nav1.7 IC50 values of the enantiomers): 4.57 times
- IC50 (human Nav1.7 (hNav1.7); −80 mV holding, step to V1/2 of inactivation for 8 s, HEK293T): 0.0247 ± 0.0094 µM
